Data taken from US7034035B2, “Fungicidal mono-, bi-, and tri-cycloheteroalkyl amides and their compositions, methods of use and preparation” (priority 1999, dated 2006).
Where two headings read alike, the source gives them in different places.

What was measured:
[1] = test system: Puccinia recondita—PUCCRT; test: Brown Rust of Wheat, in vivo whole plant, 24 Hour Protectant; details: Puccinia, inoculated after 24 hours, read-out: PUCCRT in vivo 1 Day Protectant
Ustilago maydis (USTIMA) = test: microbe, parasite or virus in culture; type: cell-based
[2] = test system: Rhizoctonia solani (RHIZSO); test: microbe, parasite or virus in culture; type: cell-based
[3] = test system: Leptosphaeria nodorum—LEPTNO; test: Glume Blotch of Wheat, in vivo whole plant, 24 Hour Protectant; details: Leptosphaeria, 24 h, inoculated after 24 hours, read-out: LEPTNO in vivo 1 Day Protectant
Septoria tritici—SEPTTR = test: Leaf Blotch of Wheat, in vivo whole plant, 24 Hour Protectant; details: Zymoseptoria tritici; wheat (cultivar Yuma), sprayed at 100 ppm, inoculated after 24 hours; control of fungal infection vs untreated plants; read-out: SEPTTR in vivo 1 Day Protectant
[4] = wheat (cultivar Yuma), sprayed at 100 ppm, control of fungal infection vs untreated plants
[5] = wheat plants sprayed at 100 ppm, control vs untreated plants

Compound	pest or weed control at 100 ppm [1, 4] [%]	USTIMA in vitro Growth Inhibition (Ustilago maydis (USTIMA))	RHIZSO in vitro Growth Inhibition [2]	pest or weed control at 100 ppm [3, 4] [%]	further results
COc1ccnc(C(=O)N[C@H]2CO[C@](C)(C(C)CC3=C(C)CCCC3(C)C)OC2)c1O (stereo partly shown) [Compound 319]	75 to 100	− (key: +: at least 80% growth inhibition; −: less than 80% growth inhibition)	− (key: +: at least 80% growth inhibition; −: less than 80% growth inhibition)		
COc1ccnc(C(=O)Nc2cccc(Oc3ccc(C(F)(F)F)cc3)n2)c1O [Compound 469]					pest or weed control at 100 ppm [1, 5]: 75 to 100%
COc1ccnc(C(=O)N[C@H]2CC[C@H]3C4CCC(CC4)[C@H]3C2=O)c1O [Compound 292]		− (key: +: at least 80% growth inhibition; −: less than 80% growth inhibition)	− (key: +: at least 80% growth inhibition; −: less than 80% growth inhibition)	75 to 100	
O=C(Nc1ccc(Cl)cc1)c1ncccc1O [Compound 213]	75 to 100	− (key: +: at least 80% growth inhibition; −: less than 80% growth inhibition)	− (key: +: at least 80% growth inhibition; −: less than 80% growth inhibition)		
COc1ccnc(C(=O)NC2CC(C)(C)CC(C)(C(=O)CCCc3ccccc3)C2)c1O (stereo not shown) [Compound 276]		− (key: +: at least 80% growth inhibition; −: less than 80% growth inhibition)	− (key: +: at least 80% growth inhibition; −: less than 80% growth inhibition)	75 to 100	
COc1ccnc(C(=O)NC(COC(=O)C(C)Cc2ccccc2)C(=O)OC(C)C)c1O (stereo not shown) [Compound 351]	75 to 100				
COc1ccnc(C(=O)NC2CC(C)(C)CCCC2C)c1O (stereo not shown) [Compound 277]		− (key: +: at least 80% growth inhibition; −: less than 80% growth inhibition)	− (key: +: at least 80% growth inhibition; −: less than 80% growth inhibition)		pest or weed control at 100 ppm (Septoria tritici—SEPTTR): 75 to 100%
COc1ccnc(C(=O)N[C@H]2CC[C@H](Oc3ccc(C(F)(F)F)cc3)CC2)c1O [Compound 270]		+ (key: +: at least 80% growth inhibition; −: less than 80% growth inhibition)	+ (key: +: at least 80% growth inhibition; −: less than 80% growth inhibition)	75 to 100	
COc1ccnc(C(=O)N[C@H]2CC3CC2[C@@H](COCc2cccc(C(F)(F)F)c2)C3)c1O (stereo partly shown) [Compound 295]		− (key: +: at least 80% growth inhibition; −: less than 80% growth inhibition)	+ (key: +: at least 80% growth inhibition; −: less than 80% growth inhibition)		pest or weed control at 100 ppm (Septoria tritici—SEPTTR): 75 to 100%
COc1ccnc(C(=O)N[C@H]2CO[C@@H](C(C)Cc3ccc(C(C)(C)C)cc3)OC2)c1O (stereo partly shown) [Compound 317]	75 to 100	− (key: +: at least 80% growth inhibition; −: less than 80% growth inhibition)	− (key: +: at least 80% growth inhibition; −: less than 80% growth inhibition)		
COc1ccnc(C(=O)N[C@H](C(=O)O[C@@H](C)[C@H](OC(=O)C(C)C)[C@@H](Cc2ccccc2)C(=O)OCc2ccccc2)[C@@H](C)OC(C)=O)c1O [Compound 361]	75 to 100				
COc1ccnc(C(=O)NC(COC(=O)C(Cc2ccccc2)C(C)O[Si](C)(C)C(C)(C)C)C(=O)OC(C)C)c1O (stereo not shown) [Compound 357]	75 to 100				
COc1ccnc(C(=O)NC2CC(C)(C)CC(C)(COCC(Cl)CCl)C2)c1O (stereo not shown) [Compound 257]		+ (key: +: at least 80% growth inhibition; −: less than 80% growth inhibition)	− (key: +: at least 80% growth inhibition; −: less than 80% growth inhibition)	75 to 100	
COC(=O)C(COC(=O)C(COC(=O)C(C)C)Cc1ccccc1)NC(=O)c1nccc(OC)c1O (stereo not shown) [Compound 349]	75 to 100				
COc1ccnc(C(=O)NC2CC(C)(C)CC3(C2)CC3(F)F)c1O (stereo not shown) [Compound 255]		− (key: +: at least 80% growth inhibition; −: less than 80% growth inhibition)	− (key: +: at least 80% growth inhibition; −: less than 80% growth inhibition)	75 to 100	
COc1ccnc(C(=O)NC(COC(=O)CC(C)OC(=O)CCc2ccccc2)C(=O)OC(C)C)c1O (stereo not shown) [Compound 353]	75 to 100				
COc1ccnc(C(=O)NC(C)c2ccc(Cl)cc2)c1O (stereo not shown) [Compound 246]		− (key: +: at least 80% growth inhibition; −: less than 80% growth inhibition)	− (key: +: at least 80% growth inhibition; −: less than 80% growth inhibition)	75 to 100	

Compound	pest or weed control at 100 ppm [1, 4] [%]	USTIMA in vitro Growth Inhibition (Ustilago maydis (USTIMA))	RHIZSO in vitro Growth Inhibition [2]	pest or weed control at 100 ppm [3, 4] [%]	further results
COc1ccnc(C(=O)N[C@H]2CO[C@H](C(C)Cc3ccc(C(C)(C)C)cc3)OC2)c1O (stereo partly shown) [Compound 316]	75 to 100	+ (key: +: at least 80% growth inhibition; −: less than 80% growth inhibition)	− (key: +: at least 80% growth inhibition; −: less than 80% growth inhibition)		
COc1ccnc(C(=O)N[C@@H](Cc2ccc(OCc3ccccc3)cc2)C(=O)O)c1O [Compound 337]		− (key: +: at least 80% growth inhibition; −: less than 80% growth inhibition)	− (key: +: at least 80% growth inhibition; −: less than 80% growth inhibition)	75 to 100	
COc1ccnc(C(=O)N[C@H]2COC(=O)[C@H](Cc3ccccc3)[C@@H](OC(=O)C3CCCCC3)[C@H](C)OC2=O)c1O [Compound 392]				75 to 100	
COc1ccnc(C(=O)N[C@H]2COC(=O)[C@H](Oc3ccccc3)[C@@H](OC(=O)C(C)C)[C@H](C)OC2=O)c1O [Compound 403]				75 to 100	
COc1ccnc(C(=O)NC2CSCC(c3ccccc3)C2)c1O (stereo not shown) [Compound 324]		+ (key: +: at least 80% growth inhibition; −: less than 80% growth inhibition)	+ (key: +: at least 80% growth inhibition; −: less than 80% growth inhibition)	75 to 100	
COc1ccnc(C(=O)Nc2ccc(Sc3cccc(C(F)(F)F)c3)cc2)c1O [Compound 445]				75 to 100	
COc1ccnc(C(=O)Nc2ccc(OC3CC(C)(C)CC(C)(C)C3)cc2)c1O [Compound 458]					pest or weed control at 100 ppm [3, 5]: 75 to 100%
O=C(Nc1ccc(Oc2ccccc2)cc1)c1cccnc1O [Compound 522]					pest or weed control at 100 ppm [3, 5]: 75 to 100%
COc1ccnc(C(=O)N[C@H]2COC(=O)[C@H](Cc3ccccc3)[C@@H](OC(=O)NC(C)C)[C@H](C)OC2=O)c1O [Compound 399]				75 to 100	
COc1ccnc(C(=O)NC2CCCC(Sc3ccc(C(F)(F)F)cn3)C2)c1O (stereo not shown) [Compound 274]	75 to 100	− (key: +: at least 80% growth inhibition; −: less than 80% growth inhibition)	+ (key: +: at least 80% growth inhibition; −: less than 80% growth inhibition)	75 to 100	
COc1ccnc(C(=O)NC(COC(=O)CC(C)O[Si](C)(C)C(C)(C)C)C(=O)OC(C)C)c1O (stereo not shown) [Compound 354]	75 to 100				
COc1ccnc(C(=O)N[C@H]2CC3CC2[C@H](COCc2cccc(C(F)(F)F)c2)C3)c1O (stereo partly shown) [Compound 294]		− (key: +: at least 80% growth inhibition; −: less than 80% growth inhibition)	+ (key: +: at least 80% growth inhibition; −: less than 80% growth inhibition)	75 to 100	
COc1ccnc(C(=O)N[C@@H]2CC3CC2c2ccccc23)c1O (stereo partly shown) [Compound 290]	75 to 100	− (key: +: at least 80% growth inhibition; −: less than 80% growth inhibition)	+ (key: +: at least 80% growth inhibition; −: less than 80% growth inhibition)	75 to 100	
COc1ccnc(C(=O)N[C@@H](COCc2ccccc2)C(=O)O[C@@H](C)[C@H](OC(=O)C(C)C)[C@@H](Cc2ccccc2)C(=O)OCc2ccccc2)c1O [Compound 342]	75 to 100				
COc1ccnc(C(=O)N[C@H]2COC(=O)[C@H](Cc3ccccc3)[C@@H](OC(=O)c3ccccc3)[C@H](C)OC2=O)c1O [Compound 394]				75 to 100	
COc1ccnc(C(=O)N[C@H]2COC(=O)[C@H](Cc3ccccc3)[C@@H](OC(=O)C(C)(C)C)[C@H](C)OC2=O)c1O [Compound 388]				75 to 100	
CC(C)C(=O)O[C@H]1[C@H](C)OC(=O)[C@@H](NC(=O)c2nscc2O)COC(=O)[C@@H]1Cc1ccccc1 [Compound 550]					pest or weed control at 100 ppm [3, 5]: 75 to 100%
